# Assay results published in US5464861A, “2-thioindoles (selenoindoles) and related disulfides (selenides) which inhibit protein tyrosine kinases and which have antitumor properties” (Warner-Lambert, priority 1993, dated 1995).
# Biological target: T1, epidermal growth factor receptor tyrosine kinase (Homo sapiens, UniProt P00533)
# T1 construct: A native 170,000 epidermal growth factor receptor-kinase complex from shed plasma membrane vesicles; endogenous in cells
# Assay: EGF receptor tyrosine kinase assay (P^32 incorporation in GAT)
# Type: biochemical
# Conditions: not given
# Description: At the time of assay, membranes were solubilized in 4% Triton X-100 and glycerol. The reaction is carried out in wells of a 96-well microtiter plate in a total volume of […]. Buffer containing 20 mMHepes (pH 7.4), 15 mMMgCl2, mM MnCl2, and 0.02% BSA followed by […] of membrane protein and 150 ng of epidermal growth factor. The plates are incubated for 10 minutes at room temperature to activate the receptor kinase. […] ATP plus or minus compound are added and incubated 10 minutes at room temperature.
# T1 sequence (P00533 25-1210): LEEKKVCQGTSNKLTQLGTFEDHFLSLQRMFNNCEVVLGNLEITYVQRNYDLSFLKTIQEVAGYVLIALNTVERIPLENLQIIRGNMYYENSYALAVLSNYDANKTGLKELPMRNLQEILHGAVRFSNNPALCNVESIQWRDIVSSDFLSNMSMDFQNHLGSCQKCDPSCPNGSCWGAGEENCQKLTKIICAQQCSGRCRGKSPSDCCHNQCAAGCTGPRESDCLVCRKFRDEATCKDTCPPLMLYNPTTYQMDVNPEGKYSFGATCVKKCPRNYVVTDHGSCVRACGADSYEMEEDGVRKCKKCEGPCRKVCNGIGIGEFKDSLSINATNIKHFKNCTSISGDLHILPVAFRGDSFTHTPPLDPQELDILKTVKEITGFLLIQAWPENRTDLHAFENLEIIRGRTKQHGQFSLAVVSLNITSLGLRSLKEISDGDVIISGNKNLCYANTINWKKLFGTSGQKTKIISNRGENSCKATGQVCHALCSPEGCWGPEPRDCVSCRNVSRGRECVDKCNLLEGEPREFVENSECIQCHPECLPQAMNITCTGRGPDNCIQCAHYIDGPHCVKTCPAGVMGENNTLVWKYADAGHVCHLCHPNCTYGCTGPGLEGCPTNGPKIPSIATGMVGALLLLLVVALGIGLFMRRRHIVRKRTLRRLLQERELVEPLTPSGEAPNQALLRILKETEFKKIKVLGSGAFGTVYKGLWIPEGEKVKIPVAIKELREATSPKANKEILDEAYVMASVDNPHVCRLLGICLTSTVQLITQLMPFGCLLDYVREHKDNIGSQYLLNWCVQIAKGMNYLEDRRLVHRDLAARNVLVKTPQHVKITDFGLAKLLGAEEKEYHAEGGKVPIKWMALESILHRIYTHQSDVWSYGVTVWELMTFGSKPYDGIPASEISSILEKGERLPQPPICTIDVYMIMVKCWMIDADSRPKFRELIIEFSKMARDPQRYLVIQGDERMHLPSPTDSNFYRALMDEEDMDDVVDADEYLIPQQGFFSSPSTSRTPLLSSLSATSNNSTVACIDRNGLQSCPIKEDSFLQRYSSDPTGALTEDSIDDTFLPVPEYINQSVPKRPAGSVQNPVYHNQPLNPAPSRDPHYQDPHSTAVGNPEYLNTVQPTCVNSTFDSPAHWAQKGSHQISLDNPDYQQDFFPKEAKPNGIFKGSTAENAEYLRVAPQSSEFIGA
# T1 sequence (P01133 971-1023 partner limits assumed): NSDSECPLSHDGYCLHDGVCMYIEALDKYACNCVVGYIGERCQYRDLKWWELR
row,Structure (SMILES),IC50 [µM]
1,"O=[N+]([O-])CCc1c(SSc2[nH]c3ccccc3c2CC[N+](=O)[O-])[nH]c2ccccc12 [Compound 49, 2,2'-dithiobis[3-(2-nitroethyl)indole]]",84.1

# Same assay, conditions: Table 2, EGRF-R; IC50 entries; read-out: IC50 (EGFR TK)
row,Structure (SMILES),IC50 [µM]
1,"O=C(O)CC1C(=S)Nc2ccccc21 (stereo not drawn) [Compound 1, 2-(2-thioxo-3-indolinyl)acetic acid]",14.9
2,"CN1C(=S)C(CCC(=O)O)c2ccccc21 (stereo not drawn) [Compound 8, 3-(1-methyl-2-thioxo-3-indolinyl)propanoic acid]",8.5
3,"NC(=O)CCC1C(=S)Nc2ccccc21 (stereo not drawn) [Compound 14, 3-(2-thioxo-3-indolinyl)propanamide]",22
4,"O=C(O)CCCC1C(=S)Nc2ccccc21 (stereo not drawn) [Compound 15, 4-(2-thioxo-3-indolinyl)butanoic acid]",6.8
5,"CN1C(=S)C(CCCC(=O)O)c2ccccc21 (stereo not drawn) [Compound 16, 4-(1-methyl-2-thioxo-3-indolyl) butanoic acid]",23
6,"CN1C(=S)C(C(=O)Nc2ccccc2)c2cc(Cl)ccc21 (stereo not drawn) [Compound 20, N-phenyl 5-chloro-1-methyl-2-thioxoindole-3-carboxamide]",9
7,"CN1C(=S)C(C(=O)c2ccc(C(=O)O)cc2)c2ccccc21 (stereo not drawn) [Compound 25, 3-(4'-carboxybenzoyl)-1-methyl-2-indolinethione]",8.7
8,Cn1c(SSc2c(CCC(=O)O)c3ccccc3n2C)c(CCC(=O)O)c2ccccc21 [Compound 37],3.3
9,"Cc1ccc2c(CCC(=O)O)c(SSc3[nH]c4cc(C)ccc4c3CCC(=O)O)[nH]c2c1 [Compound 43, bis[methylindolyl-3-propanoate-(2)]disulfide]",2.9
10,"Cc1cccc2c(CCC(=O)O)c(SSc3[nH]c4c(C)cccc4c3CCC(=O)O)[nH]c12 [Compound 45, bis[7-methylindolyl-3-propanoic acid-(2)] disulfide]",1.6
11,"N#CCCc1c(SSc2[nH]c3ccccc3c2CCC#N)[nH]c2ccccc12 [Compound 48, 2,2'-dithiobis[3-indolylpropionitrile]]",35.5
12,CNC(=O)CCc1c(SSc2[nH]c3ccccc3c2CCC(=O)NC)[nH]c2ccccc12 [Compound 51],7
13,CN(C)C(=O)CCc1c(SSc2[nH]c3ccccc3c2CCC(=O)N(C)C)[nH]c2ccccc12 [Compound 53],4.2
14,CC(=O)OC(Cc1c(SSc2[nH]c3ccccc3c2CC(OC(C)=O)C(=O)NCc2ccccc2)[nH]c2ccccc12)C(=O)NCc1ccccc1 (stereo not drawn) [Compound 63],60
15,"O=C(NCc1ccccc1)C(O)Cc1c(SSc2[nH]c3ccccc3c2CC(O)C(=O)NCc2ccccc2)[nH]c2ccccc12 (stereo not drawn) [Compound 64, 2,2'-dithiobis[α-hydroxy-N -(phenylmethyl)-1H-indole-3-propanamide]]",29
16,"O=C(O)CCCc1c(SSc2[nH]c3ccccc3c2CCCC(=O)O)[nH]c2ccccc12 [Compound 65, bis[indolyl-3-butanoic acid-(2)]disulfide]",17.8
17,Cn1c(SSc2c(CCCC(=O)O)c3ccccc3n2C)c(CCCC(=O)O)c2ccccc21 [Compound 66],8.3
18,"CC(=O)Oc1cccc2c(C(=O)Nc3ccccc3)c(SSc3c(C(=O)Nc4ccccc4)c4cccc(OC(C)=O)c4n3C)n(C)c12 [Compound 95, 2,2'-dithiobis[N-phenyl-7-acetoxy-1-methylindolyl-3-carboxamide]]",9.4
19,"Cn1c(SSc2c(C(=O)c3ccc(C(=O)O)cc3)c3ccccc3n2C)c(C(=O)c2ccc(C(=O)O)cc2)c2ccccc21 [Compound 101, bis[3-(4'-carboxybenzoyl)-1-methylindole-(2)]disulfide]",5.5
20,"COC(=O)c1ccc(C(=O)c2c(SSc3c(C(=O)c4ccc(C(=O)OC)cc4)c4ccccc4n3C)n(C)c3ccccc23)cc1 [Compound 102, bis[3-(4'-carbomethoxybenzoyl)-1-methylindole-(2)]disulfide]",6.1
21,"Cn1c(SSc2c(C(=O)Nc3cccc(C(=O)O)c3)c3ccccc3n2C)c(C(=O)Nc2cccc(C(=O)O)c2)c2ccccc21 [Compound 107, 2,2'-dithiobis[N-(3-carboxy)phenyl-1-methylindolyl-3-carboxamide]]",12
22,"COC(=O)c1ccc(CNC(=O)c2c(SSc3c(C(=O)NCc4ccc(C(=O)OC)cc4)c4ccccc4n3C)n(C)c3ccccc23)cc1 [Compound 110, 2,2'-dithiobis [N-(4'-carbomethoxy)benzyl 1-methylindolyl-3-carboxamide]]",13
23,Cn1c(SSc2c(C#N)c3ccccc3n2C)c(C#N)c2ccccc21 [Compound 120],6.9
24,"CC(=O)c1c(SSc2c(C(C)=O)c3ccccc3n2C)n(C)c2ccccc12 [Compound 121, 2,2'-dithiobis(3-acetyl-1-methylindole)]",5.6
25,"CNC(=O)c1c(SSc2[nH]c3ccccc3c2C(=O)NC)[nH]c2ccccc12 [Compound 127, 2,2'-dithiobis[N-methylindolinyl-3-carboxamide]]",6.8

# Same assay, conditions: at 100 μM; EGRF-R; read-out: % Inhibition at 100 μM (EGFR TK)
row,Structure (SMILES),inhibition at 100 µM [%]
1,CC(=O)NC(Cc1c(SSc2[nH]c3ccccc3c2CC(NC(C)=O)C(=O)NCc2ccccc2)[nH]c2ccccc12)C(=O)NCc1ccccc1 (racemic) [Compound 60],53
2,"CN1C(=S)C(CC(=O)O)c2ccccc21 (stereo not drawn) [Compound 2, 2-(1-methyl-2-thioxo-3-indolinyl)acetic acid]",26
3,"COC(=O)CC1C(=S)N(C)c2ccccc21 (stereo not drawn) [Compound 4, methyl 2-(1-methyl-2-thioxo-3-indolinyl)acetate]",27
4,"CCOC(=O)CC1C(=S)N(C)c2ccccc21 (stereo not drawn) [Compound 5, ethyl 2-(1-methyl-2-thioxo-3-indolinyl)acetate]",4
5,"COC(=O)CCC1C(=S)N(C)c2ccccc21 (stereo not drawn) [Compound 11, methyl 3-(1-methyl-2-thioxo-3-indolinyl)propanoate]",24
6,"CCOC(=O)CCC1C(=S)N(C)c2ccccc21 (stereo not drawn) [Compound 12, ethyl 3-(1-methyl-2-thioxo-3-indolinyl)propanoate]",3
7,"O=C(CCC1C(=S)Nc2ccccc21)NCc1ccccc1 (stereo not drawn) [Compound 13, N-benzyl 3-(2-thioxo-3-indolinyl) propanamide]",43
8,"COC(=O)CCCC1C(=S)Nc2ccccc21 (stereo not drawn) [Compound 17, methyl 4-(2-thioxo-3-indolinyl)butanoate]",12.5
9,"Cn1c(S)c(C(=O)Nc2ccccc2)c2cccnc21 [Compound 19, N-phenyl (1-methyl-7-aza-2-thioxo-3-indolinyl)carboxamide]",10
10,"CCOC(=O)CCc1c(SSc2[nH]c3ccc(C)cc3c2CCC(=O)OCC)[nH]c2ccc(C)cc12 [Compound 42, bis[ethyl 5-methylindolyl-3-propanoate-(2)]disulfide]",26
11,O=C(CCc1c(SSc2[nH]c3ccccc3c2CCC(=O)NCc2ccc(C(=O)O)c(O)c2)[nH]c2ccccc12)NCc1ccc(C(=O)O)c(O)c1 [Compound 58],68
12,"Cn1c(SSc2c(C(=O)Nc3ccccc3)c3cccc(Cl)c3n2C)c(C(=O)Nc2ccccc2)c2cccc(Cl)c21 [Compound 74, bis [N-phenyl-7-chloro-1-methylindolyl-3-carboxamide-(2)]disulfide]",23
13,"CC(=O)Oc1ccc2c(C(=O)Nc3ccccc3)c(SSc3c(C(=O)Nc4ccccc4)c4ccc(OC(C)=O)cc4n3C)n(C)c2c1 [Compound 93, 2,2'-dithiobis [N-phenyl-6-acetoxy-1-methylindolyl-3-carboxamide]]",30
14,"COC(=O)c1ccc(NC(=O)c2c(SSc3c(C(=O)Nc4ccc(C(=O)OC)cc4)c4ccccc4n3C)n(C)c3ccccc23)cc1 [Compound 104, 2,2'-dithiobis [N-(4'-carbomethoxy)phenyl-1-methylindolyl-3-carboxamide]]",20
15,"COC(=O)c1cccc(NC(=O)c2c(SSc3c(C(=O)Nc4cccc(C(=O)OC)c4)c4ccccc4n3C)n(C)c3ccccc23)c1 [Compound 106, 2,2'-dithiobis [N-(3'-carbomethoxy)phenyl-1-methylindolyl-3-carboxamide]]",34
16,"COC(=O)c1ccccc1NC(=O)c1c(SSc2c(C(=O)Nc3ccccc3C(=O)OC)c3ccccc3n2C)n(C)c2ccccc12 [Compound 108, 2,2'-dithiobis [N-(2-carbomethoxy)phenyl-1-methylindolyl-3-carboxamide]]",20
17,"Cn1c(SSc2c(C(=O)Nc3ccccn3)c3ccccc3n2C)c(C(=O)Nc2ccccn2)c2ccccc21 [Compound 122, 2,2'-dithiobis [N-(2'-pyridyl)-1-methylindole-3-carboxamide]]",51
18,"O=C(NCc1ccccc1)c1c(SSc2[nH]c3ccccc3c2C(=O)NCc2ccccc2)[nH]c2ccccc12 [Compound 125, 2,2'-dithiobis [N-benzylindolyl-3-carboxamide]]",78
19,"O=C(Nc1ccccc1)c1c(SSc2[nH]c3ccccc3c2C(=O)Nc2ccccc2)[nH]c2ccccc12 [Compound 126, 2,2'-dithiobis [N-phenylindolyl-3-carboxamide]]",60
20,"Cn1c([Se][Se]c2c(C(=O)OC(C)(C)C)c3ccccc3n2C)c(C(=O)OC(C)(C)C)c2ccccc21 [Compound 129, 2,2'-diselenobis [1-methyl-1H-indole-3-carboxylic acid, t-butyl ester]]",31

# Same assay, conditions: read-out: IC50 (EGFR TK)
row,Structure (SMILES),IC50 [µM]
1,"Cn1c([Se][Se]c2c(C(=O)O)c3ccccc3n2C)c(C(=O)O)c2ccccc21 [Compound 130, 2,2'-diselenobis [1-methyl-1H-indole-3-carboxylic acid]]",3.5
2,"CCN(CC)CCn1c([Se][Se]c2c(C(=O)NC)c3ccccc3n2CCN(CC)CC)c(C(=O)NC)c2ccccc21 [Compound 135, 2,2'-diselenobis [1-[2-(diethylamino)ethyl] -N-methyl-1H-indole-3-carboxamide]]",6.9
